# Tests used:
# [1] = Metabolic Stability (liver microsomes, monkey, Cynomolgus); format: in vitro ADME; conditions: 1.0E−06 M, 60 min
# Method: Metabolic stability was determined in human (mixed gender and pool of 50) monkey (male Cynomolgus, pool of 6 or more), dog male, beagle, pool of 4 or more) and rat (male Sprague-Dawley, pool of 100 or more) liver microsomes. […] Four reference substrates (1 μM) were tested simultaneously with COTI-2. […] Peak areas corresponding to COTI-2 were recorded by HPLC-MS/MS. Metabolic stability, expressed as percent of COTI-2 remaining, was calculated by comparing the peak area of COTI-2 at 60 min to time zero.
# CYP2C8 = target: T1, CYP2C8 (Homo sapiens, UniProt P10632); assay: in vitro; conditions: both
# T1 sequence (P10632 1-490): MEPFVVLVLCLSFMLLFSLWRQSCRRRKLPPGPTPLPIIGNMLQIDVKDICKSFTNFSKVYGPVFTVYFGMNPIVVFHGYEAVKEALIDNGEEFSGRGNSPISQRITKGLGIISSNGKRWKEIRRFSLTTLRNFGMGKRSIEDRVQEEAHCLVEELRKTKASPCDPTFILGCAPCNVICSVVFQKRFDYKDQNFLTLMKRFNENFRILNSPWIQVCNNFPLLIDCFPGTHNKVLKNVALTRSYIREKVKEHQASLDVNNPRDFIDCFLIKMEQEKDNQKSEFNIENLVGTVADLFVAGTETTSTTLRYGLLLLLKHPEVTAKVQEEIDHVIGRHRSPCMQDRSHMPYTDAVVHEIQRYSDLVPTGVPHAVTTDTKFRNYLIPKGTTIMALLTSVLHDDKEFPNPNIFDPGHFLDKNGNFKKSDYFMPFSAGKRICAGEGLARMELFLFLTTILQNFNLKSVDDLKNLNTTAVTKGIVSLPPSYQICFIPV
# [2] = tested on: PI3K activity in DMS114 cells; assay: PI3-K activity (PIP3 detection, Echelon kit), DMS114; format: cell-based, human; conditions: DMS114, 250 nM COTI-2 alone, 20 minutes
# Text: As a negative control, an equivalent volume of DMSO was utilized. […] To measure PI3-K activity, a commercial kit was purchased from Echelon. Following the procedures recommended by the manufacturer, membrane lipids were extracted in several steps and the resulting PIP3 was immobilized to nitrocellulose and measured by its interaction with a PH-domain containing protein and HRP-conjugated antibody supplied with the kit. As an additional control in these experiments, the specific PI3-K inhibitor, LY294002 was used to inhibit PI3-K and thus stop PIP3 production.
# SHP77 cells = assay: Western blots of cellular lysates of SHP77 cells treated with COTI-2; format: cell-based, human; conditions: 250 nM
# Method: To confirm this mechanism SHP77 cells were treated with 250 nM of COTI-2 and incubated for 3 and 6 hours. Phospho-Akt expression was decreased as compared to control at both 3 and 6 hours, with corresponding increases in Akt levels.
# [3] = In vivo pharmacokinetics in rats, IV dosing; conditions: IV
# Text: Pharmacokinetic studies in animal models provide valuable information that enables prediction of metabolism in humans. There are a large variety of animal models that allow for the pharmacokinetic evaluation of compounds by providing information on serum, plasma, and tissue levels. […] As a result, it is important to keep this phenomenon in mind during extrapolations from animal to human metabolism. An initial pharmacokinetic assessment of COTI-2, administered both intravenously and orally, in its parent formulation and as both an oxalate and tartrate salt were evaluated in rats.
# A single oral or IV dose of the COTI-2 free-base or the aforementioned salt forms was administered to groups of male and female rats and blood samples collected and processed at several time-points post-treatment.
# SHP 77 cells = assay: Proliferation with anti-cancer agents plus COTI-2, SHP 77; format: cell-based, human
# [4] = tested on: DMS114 and SHP77 cell lines; assay: Microarray differential gene expression analysis; format: cell-based, human; conditions: 150 or 300 nM, 6 h
# Method: For each cell line, four sets of microarray experiments were performed, with each set consisting of control and treated cells exposed for 6 h either to DMSO or COTI-2 at 150 or 300 nM total concentration. Total RNA was prepared with RNeasy (Qiagen) and converted to Cy3 or Cy5-labelled cRNA according to procedures provided with the linear amplification kit from Agilent Technologies. Two hundred […] of labeled cRNA were hybridized to 4×44K Agilent whole genome microarrays, the arrays were washed, scanned and relevant features were extracted according to the manufacturer's protocol and further analyzed as described by Wolber et al. (Methods in Enzymology 410:28-57), which is incorporated herein by reference in its entirety.
# Cy5 and Cy3 features were extracted and normalized by median centering the expression values relative to the median value of the 8 hybridization experiments performed on each microarray slide. […] Statistically significant changes in gene expression between treatment and control groups were determined by SAM analysis using TIGR software from The Institute of Genomic Research or by t tests with false discovery correction. Only genes that were differentially expressed in all 4 biologically-independent groups were further analyzed. […] The intersection of common genes was determined using GeneVenn (http://mcbc.usm.edu/qenevenn/genevenn.htm).
# [5] = tested on: total Akt protein in SHP-77 cells; assay: Total Akt by western blot analysis, SHP-77; format: cell-based, human; conditions: SHP-77, 250 nM, after 24 hrs
# Method: Cell viability was determined at 24, 48, and 96 hrs by the trypan exclusion method. Whole cell lysates were prepared using standard procedures and fifty micrograms of lysate protein was separated on SDS-PAGE gels and analyzed by western blotting.
# Cell viability was determined at 24, 48, and 96 h by the trypan exclusion method. Whole cell lysates were prepared using standard procedures and 50 μg of lysate protein was separated on SDS-PAGE gels and analyzed by western blotting.
# CYP2C19 = CYP2C19 (Homo sapiens, UniProt P33261); assay: in vitro; conditions: both
# CYP2C19, sequence (P33261 whole entry): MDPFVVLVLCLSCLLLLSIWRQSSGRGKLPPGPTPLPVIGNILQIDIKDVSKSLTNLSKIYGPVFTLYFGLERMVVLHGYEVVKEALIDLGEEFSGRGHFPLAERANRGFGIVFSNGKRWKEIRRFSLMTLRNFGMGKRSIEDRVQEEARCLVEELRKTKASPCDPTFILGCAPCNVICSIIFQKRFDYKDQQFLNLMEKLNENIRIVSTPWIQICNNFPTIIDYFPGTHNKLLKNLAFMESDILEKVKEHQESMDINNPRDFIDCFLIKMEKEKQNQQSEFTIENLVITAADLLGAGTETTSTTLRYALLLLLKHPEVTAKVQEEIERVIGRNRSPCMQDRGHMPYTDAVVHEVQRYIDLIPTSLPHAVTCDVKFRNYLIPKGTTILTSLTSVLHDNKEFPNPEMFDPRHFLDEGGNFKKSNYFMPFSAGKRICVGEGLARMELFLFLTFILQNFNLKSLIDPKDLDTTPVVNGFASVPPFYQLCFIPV
structure (smiles),measurement,setting,value
S=C(N/N=C1/CCCc2cccnc21)N1CCN(c2ccccn2)CC1 [COTI-2],Mean Parent Remaining,[1],2%
same,"inhibition at 15 min, 10 µM","CYP2C8; human liver microsomes, pH 7.4, probe paclitaxel (10 µM)",10%
same,"inhibition at 15 min, 10 µM","CYP2C8; liver microsomes, pH 7.4, probe paclitaxel",< 50%
same,increase in PI3K activity (PIP3 levels),[2],approximately 25%
same,Caspase 8 level of expression,SHP77 cells,remained constant
same,phospho-STAT3 expression,SHP77 cells,no change
same,Phospho-Akt expression,SHP77 cells; 3 and 6 hours,decreased
same,phospho-Caspase 9,SHP77 cells; 3 and 6 hrs,profound suppression
same,decrease in total STAT3,SHP77 cells; 6 hrs,~30%
same,"clearance (CL) from plasma, fold higher than the oxalate formulation",[3],approximately 1.4 fold
same,"clearance (CL) from plasma, fold higher than the tartrate formulation",[3],~2.3 fold
same,reduction of proliferation as a single agent,"SHP 77 cells; SHP 77, 31 nM",25%
same,reduction of proliferation as a single agent,"SHP 77 cells; SHP 77, 73 nM",25%
same,AKT gene expression,[4],down-regulated
same,Rictor (mTOR-Rictor) expression,[4],down-regulation of Rictor
same,total Akt protein,[5],decreased
same,"inhibition at 15 min, 10 µM","CYP2C19; human liver microsomes, pH 7.4, probe omeprazole (10 µM)",4%
same,"inhibition at 15 min, 10 µM","CYP2C19; liver microsomes, pH 7.4, probe omeprazole",< 50%

# Source: patent US8138191B2, “Inhibitor compounds and cancer treatment methods” (Critical Outcome Technologies Inc., priority 2007, dated 2012)
